Assay results taken from US10329289B2, “6,7-dihydro-5H-pyrrolo[3,4-B]pyridin-5-one allosteric modulators of the M4 muscarinic acetylcholine receptor” (Merck Sharp & Dohme Corp., priority 2015, dated 2019).

Biological target: T1, human M4 muscarinic acetylcholine receptor (Homo sapiens, UniProt P08173)
T1 construct: expressed in transfected cells; host or cells: CHO-K1
T1 sequence (P08173 1-479): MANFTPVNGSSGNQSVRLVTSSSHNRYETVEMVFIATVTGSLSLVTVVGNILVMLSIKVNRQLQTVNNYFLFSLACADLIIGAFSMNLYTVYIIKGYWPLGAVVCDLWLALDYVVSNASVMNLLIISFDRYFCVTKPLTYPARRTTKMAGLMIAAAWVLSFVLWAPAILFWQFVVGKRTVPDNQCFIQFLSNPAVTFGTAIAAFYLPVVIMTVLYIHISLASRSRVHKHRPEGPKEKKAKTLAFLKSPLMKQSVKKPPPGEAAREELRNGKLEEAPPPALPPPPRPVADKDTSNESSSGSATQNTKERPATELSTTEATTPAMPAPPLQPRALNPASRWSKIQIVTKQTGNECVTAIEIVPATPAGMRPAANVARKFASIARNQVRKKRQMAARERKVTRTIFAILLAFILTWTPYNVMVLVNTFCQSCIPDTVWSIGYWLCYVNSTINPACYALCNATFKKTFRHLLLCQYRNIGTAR
Test: human FLIPR-based M4 PAM assay (Ca2+ mobilization, CHO-K1 cells with human M4 receptor and Gαqi5)
Assay type: cell-based
Details: acetylcholine at 20% of maximum response, read-out: M4 PAM IP
Procedure, shortened: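 Calcium-mobilization (FLIPR) readout in dye-loaded CHO-K1 cells co-expressing human M4 receptor and Gαqi5. Potentiation measured against acetylcholine at a concentration giving 20% of maximal response, with an optional 70% addition; the reported value is the curve inflection point from a 4-parameter logistic fit.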

Going from Cc1cc(OC2CCN(c3nc4c(cc3C)C(=O)NC4)CC2)cnc1C [Example 114, 2-(4-((5,6-dimethylpyridin-3-yl)oxy)piperidin-1-yl)-3-methyl-6,7-dihydro-5H-pyrrolo[3,4-b]pyridin-5-one] to Cc1cc2c(nc1N1CCC(Oc3cnc4c(c3)COCC4)CC1)CNC2=O [Example 52, 2-(4-((7,8-dihydro-5H-pyrano[4,3-b]pyridin-3-yl)oxy)piperidin-1-yl)-3-methyl-6,7-dihydro-5H-pyrrolo[3,4-b]pyridin-5-one], the EC50 rises from 88 nM to 238 nM (2.7-fold). The first is the more potent here.

First: Cc1cc2c(nc1N1CCC(Oc3ccc4c(c3)CCO4)CC1)CNC2=O [Example 109, 2-(4-((2,3-dihydrobenzofuran-5-yl)oxy)piperidin-1-yl)-3-methyl-6,7-dihydro-5H-pyrrolo[3,4-b]pyridin-5-one]
Second: CCc1cc2c(nc1N1CCC(Oc3ccc4c(c3)CCOC4)CC1)CNC2=O [Example 200A, 3-ethyl-2-(4-(isochroman-6-yloxy)piperidin-1-yl)-6,7-dihydro-5H-pyrrolo[3,4-b]pyridin-5-one]
The EC50 of the first is 2.9-fold lower: 20 nM for the first, 58 nM for the second.

Cc1cc2c(nc1N1CC[C@H](Oc3ccc4c(cnn4C)c3)[C@H](F)C1)CNC2=O [Example 23, 2-((3R,4S)-3-fluoro-4-((1-methyl-1H-indazol-5-yl)oxy)piperidin-1-yl)-3-methyl-6,7-dihydro-5H-pyrrolo[3,4-b]pyridin-5-one] and Cc1cc2c(nc1N1CC[C@@H](Oc3ccc4c(cnn4C)c3)[C@@H](F)C1)CN(CCO)C2=O [Example 267E, 2-((3S,4R)-3-fluoro-4-((1-methyl-1H-indazol-5-yl)oxy)piperidin-1-yl)-6-(2-hydroxyethyl)-3-methyl-6,7-dihydro-5H-pyrrolo[3,4-b]pyridin-5-one] are within 1.5-fold of each other in EC50: 70 nM for the first, 69 nM for the second.

Going from Cc1cc2c(nc1N1CCC(Oc3cnc4c(c3)COCC4)CC1)CN(C)C2=O [Example 53, 2-(4-((7,8-dihydro-5H-pyrano[4,3-b]pyridin-3-yl)oxy)piperidin-1-yl)-3,6-dimethyl-6,7-dihydro-5H-pyrrolo[3,4-b]pyridin-5-one] to COCCN1Cc2nc(N3CCC(Oc4ccc5c(c4)COC5)CC3)c(C)cc2C1=O [Example 263A, 2-(4-((1,3-dihydro-2-benzofuran-5-yl)oxy)piperidin-1-yl)-6-(2-methoxyethyl)-3-methyl-6,7-dihydro-5H-pyrrolo[3,4-b]pyridin-5-one], the EC50 falls from 449 nM to 40 nM (11-fold). The second is the more potent here.

First: Cc1cc2c(nc1N1CCC(OC(F)F)CC1)CNC2=O [Example 4A, 2-(4-(difluoromethoxy)piperidin-1-yl)-3-methyl-6,7-dihydro-5H-pyrrolo[3,4-b]pyridin-5-one]
Second: Cc1cc2c(nc1N1CCC(OCC(O)C(F)(F)F)CC1)CNC2=O (single isomer, unassigned) [Example 181B]
The EC50 of the first is 15-fold higher: 2770 nM for the first, 183 nM for the second.

Cc1cc2c(nc1N1CCC(Oc3ccc(OC(C)C)nc3)CC1)CNC2=O [Example 62, 2-(4-((6-isopropoxypyridin-3-yl)oxy)piperidin-1-yl)-3-methyl-6,7-dihydro-5H-pyrrolo[3,4-b]pyridin-5-one] and Cc1ccc(OC2CCN(c3nc4c(cc3C)C(=O)NC4)CC2)cc1 [Example 83, 3-methyl-2-(4-(p-tolyloxy)piperidin-1-yl)-6,7-dihydro-5H-pyrrolo[3,4-b]pyridin-5-one] are within 1.5-fold of each other in EC50: 55 nM for the first, 48 nM for the second.

First: COc1ccc(O[C@@H]2CCN(c3nc4c(cc3C)C(=O)NC4)C[C@H]2C)cn1 (single isomer, unassigned) [Example 2A]
Second: COc1ccc(OC2CCN(c3nc4c(cc3C3CC3)C(=O)NC4)CC2)cn1 [Example 221, 3-cyclopropyl-2-(4-((6-methoxypyridin-3-yl)oxy)piperidin-1-yl)-6,7-dihydro-5H-pyrrolo[3,4-b]pyridin-5-one]
The EC50 of the first is 13-fold lower: 86 nM for the first, 1080 nM for the second. The first is the more potent here.

Compared with Cc1cc2c(nc1N1[C@@H]3CC[C@H]1C[C@@H](Oc1cccc(C#N)c1)C3)CNC2=O [Example 95, 3-((endo-8-(3-methyl-5-oxo-6,7-dihydro-5H-pyrrolo[3,4-b]pyridin-2-yl)-8-azabicyclo[3.2.1]octan-3-yl)oxy)benzonitrile], Cc1cc2c(nc1N1CCC(Oc3ccnc(C#N)c3)CC1)CNC2=O [Example 93, 4-((1-(3-methyl-5-oxo-6,7-dihydro-5H-pyrrolo[3,4-b]pyridin-2-yl)piperidin-4-yl)oxy)picolinonitrile] is 1.5-fold higher in EC50: 616 nM for the first, 944 nM for the second. The first is the more potent here.

First: Cc1cc2c(nc1N1CCC(Oc3cc(F)c4[nH]ncc4c3)CC1)CNC2=O [Example 317, 2-(4-((7-Fluoro-1H-indazol-5-yl)ox)piperidin-1-yl)-3-methyl-6,7-dihydro-5H-pyrrolo[3,4-b]pyridin-5-one]
Second: Cc1cc2c(nc1N1CCC(Oc3ccccc3F)CC1)CNC2=O [Example 75, 2-(4-(2-fluorophenoxy)piperidin-1-yl)-3-methyl-6,7-dihydro-5H-pyrrolo[3,4-b]pyridin-5-one]
The EC50 of the first is 1.9-fold lower: 125 nM for the first, 236 nM for the second. The first is the more potent here.

Going from Cc1cc2c(nc1N1CCC(OCc3ccccn3)CC1)CNC2=O [Example 205A, 3-methyl-2-(4-(pyridin-2-ylmethoxy)piperidin-1-yl)-6,7-dihydro-5H-pyrrolo[3,4-b]pyridin-5-one] to Cc1cc2c(nc1N1CCC(Oc3ccc4cccnc4c3)CC1)CNC2=O [Example 92, 3-methyl-2-(4-(quinolin-7-yloxy)piperidin-1-yl)-6,7-dihydro-5H-pyrrolo[3,4-b]pyridin-5-one], the EC50 falls from 5630 nM to 461 nM (12-fold).

Going from Cc1cc2c(nc1N1CC[C@@H](OCC3(C)CC3)C(F)(F)C1)CNC2=O [Example 171A, (R)-2-(3,3-difluoro-4-((1-methylcyclopropyl)meth-oxy)piperidin-1-yl)-3-methyl-6,7-dihydro-5H-pyrrolo[3,4-b]pyridin-5-one] to CCc1cc2c(nc1N1CC[C@H](OCC3(C)CC3)C(F)(F)C1)CNC2=O (single isomer, unassigned) [Example 374B], the EC50 falls from 491 nM to 45 nM (11-fold).

Compared with Cc1cc2c(nc1N1CCC(OCC3(F)CCCC3)CC1)CNC2=O [Example 180, 2-(4-((1-fluorocyclopentyl)meth-oxy)piperidin-1-yl)-3-methyl-6,7-dihydro-5H-pyrrolo[3,4-b]pyridin-5-one], Cc1cc2c(nc1N1CCC(OC3CCOC3)CC1)CNC2=O (stereo not shown) [Example 41, 3-methyl-2-(4-((tetrahydrofuran-3-yl)oxy)piperidin-1-yl)-6,7-dihydro-5H-pyrrolo[3,4-b]pyridin-5-one] is 6.8-fold higher in EC50: 1650 nM for the first, 11300 nM for the second. The first is the more potent here.

Compared with COCCOc1ccc(OC2CCN(c3nc4c(c(C)c3C)C(=O)NC4)CC2)cn1 [Example 220, 2-(4-((6-(2-methoxyethoxy)pyridin-3-yl)oxy)piperidin-1-yl)-3,4-dimethyl-6,7-dihydro-5H-pyrrolo[3,4-b]pyridin-5-one], Cc1c(N2CCC(Oc3cnn(C)c3)CC2)nc2c(c1C)C(=O)NC2 [Example 331, 3,4-dimethyl-2-(4-((1-methyl-1H-pyrazol-4-yl)oxy)piperidin-1-yl)-6,7-dihydro-5H-pyrrolo[3,4-b]pyridin-5-one] is 3.3-fold lower in EC50: 109 nM for the first, 33 nM for the second. The second is the more potent here.

First: Cc1cc2c(nc1N1CCC(Oc3ccccc3)CC1)CN(CCO)C2=O [Example 231, 6-(2-Hydroxyethyl)-3-methyl-2-(4-phenoxypiperidin-1-yl)-6,7-dihydro-5H-pyrrolo[3,4-b]pyridin-5-one]
Second: CCc1cc2c(nc1N1CCC(Oc3ccccc3)CC1)CNC2=O [Example 202, 3-ethyl-2-(4-phenoxypiperidin-1-yl)-6,7-dihydro-5H-pyrrolo[3,4-b]pyridin-5-one]
The EC50 of the first is 2.9-fold lower: 51 nM for the first, 148 nM for the second.

Going from Cc1cc2c(nc1N1CCC(OC[C@@H]3C[C@H]3C(F)(F)F)CC1)CNC2=O (single isomer, unassigned) [Example 3A, 3-methyl-2-(4-(((trans)-2-(trifluoromethyl)cyclopropyl)methoxy)piperidin-1-yl)-6,7-dihydro-5H-pyrrolo[3,4-b]pyridin-5-one] to CCc1cc2c(nc1N1CCC(Oc3cnc4c(c3)COC4)CC1)CNC2=O [Example 212A, 2-(4-((5,7-dihydrofuro[3,4-b]pyridin-3-yl)oxy)piperidin-1-yl)-3-ethyl-6,7-dihydro-5H-pyrrolo[3,4-b]pyridin-5-one], the EC50 falls from 637 nM to 116 nM (5.5-fold).

First: Cc1c(N2CCC(Oc3cccc(C#N)c3)CC2)nc2c(c1C)C(=O)NC2 [Example 94A, 3-((1-(3,4-dimethyl-5-oxo-6,7-dihydro-5H-pyrrolo[3,4-b]pyridin-2-yl)piperidin-4-yl)oxy)benzonitrile]
Second: CO[C@@H]1Cc2ccc(OC3CCN(c4nc5c(c(C)c4C)C(=O)N(CCO)C5)CC3)cc2C1 [Example 267C, (R)-6-(2-hydroxyethyl)-2-(4-((2-methoxy-2,3-dihydro-1H-inden-5-yl)oxy)piperidin-1-yl)-3,4-dimethyl-6,7-dihydro-5H-pyrrolo[3,4-b]pyridin-5-one]
The EC50 of the first is 1.8-fold higher: 193 nM for the first, 109 nM for the second. The second is the more potent here.

Cc1c(N2CC[C@H](OCC3(C)CC3)[C@@H](F)C2)nc2c(c1C)C(=O)N(CCO)C2 [Example 266G, 2-((3S,4S)-3-fluoro-4-((1-methylcyclopropyl)methoxy)piperidin-1-yl)-6-(2-hydroxyethyl)-3,4-dimethyl-6,7-dihydro-5H-pyrrolo[3,4-b]pyridin-5-one] and COc1ccc(OC2CCN(c3nc4c(cc3C)C(=O)N(CC(N)=O)C4)CC2)cn1 [Example 310, 2-(2-(4-((6-methoxypyridin-3-yl)oxy)piperidin-1-yl)-3-methyl-5-oxo-5,7-dihydro-6H-pyrrolo[3,4-b]pyridin-6-yl)acetamide] are within 1.5-fold of each other in EC50: 69 nM for the first, 101 nM for the second.
